Results on 104 compounds are retold here after PubChem BioAssay AID1648 (Sanford-Burnham Center for Chemical Genomics, 2009).

Activity calls are given as the source filed them. No rule for the calls is given here. Some results are limits rather than exact numbers.

Chain of Serine/threonine-protein kinase mTOR (Homo sapiens) (P42345 2015-2114): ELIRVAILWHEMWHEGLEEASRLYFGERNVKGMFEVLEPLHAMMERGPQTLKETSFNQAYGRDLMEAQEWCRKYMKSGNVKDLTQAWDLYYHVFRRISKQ

The experiment has as its target Serine/threonine-protein kinase mTOR (Homo sapiens) (UniProt P42345). Description: binders of mTOR FRB domain, biophysical, NMR (AID 1648). The following applies: NMR binding to FRB domain, chemical shift.
Regarding `CSc1nnc2[nH]c(=O)cc(N)n12`, the Kd was > 4 mM (inactive). Next, `CN(C)c1ccc(N2C(=O)CCC2=O)cc1`: > 4 mM (inactive); `CN(C)c1n[nH]c(=O)[nH]c1=O`: > 4 mM (inactive); `CCCNC(=O)CSc1nnc(C)s1`: > 4 mM (inactive). In the case of `O=C(Nc1cccc(Cl)c1)c1ccncc1`, the Kd is > 4 mM (inactive).

Turning to `O=C1CCCC(=O)N1Cc1ccco1`, the Kd was > 4 mM (inactive). For `Cc1nc2ccccc2c(=O)n1NC(=O)Nc1ccccc1`, the Kd is > 4 mM (inactive). Next, `Cc1[nH]c(=O)[nH]c(=O)c1N1CCOCC1`: > 4 mM (inactive); `COC(=O)c1cc(C)on1`: > 4 mM (inactive). Take `Cc1nc2ccccc2c(=O)[nH]1`: the Kd was > 4 mM (inactive). Next, `CC(C(N)=O)N1C(=O)c2ccccc2C1=O` (centres undefined): > 4 mM (inactive); `Cn1c(CN2CC(c3ccccc3)CC2=O)n[nH]c1=S` (centres undefined): > 4 mM (inactive); `Cc1nc(-c2ccc(NS(C)(=O)=O)cc2)cs1`: > 4 mM (inactive). On to `CCSc1nc(N)c(NC(=O)c2ccco2)c(=O)[nH]1`, for which the Kd was > 4 mM (inactive). For the compound `CC(C)n1nnc2cc(C(=O)O)ccc21`, the Kd was > 4 mM (inactive). `Cc1nccc2c1[nH]c1ccccc12`: the Kd is > 4 mM (inactive). Next, `NCc1ccc(-n2cccn2)cc1`: > 4 mM (inactive). Regarding `CC(=O)O[C@@H]1CC2C(C)(C)C(=O)[C@@H]3O[C@@H]3[C@]2(C)C2CC[C@]3(C)C(=CC(=O)O[C@H]3c3ccoc3)[C@@]21C` (some centres undefined), the Kd is > 4 mM (inactive). Turning to `O=C(O)Cc1noc2ccccc12`, the Kd was > 4 mM (inactive). Next, `O=c1nc(C(F)(F)F)nc2ccccn12`: > 4 mM (inactive); `Cc1ccc(C)c(C(=O)n2cnnc2N)c1`: > 4 mM (inactive). Take `CC(=O)N1CCC(NC2CCCCCC2)CC1`: the Kd is > 4 mM (inactive).

For the compound `Cc1cc(C(=O)Nc2sc(C)c(C)c2C#N)c(C)o1`, the Kd was > 4 mM (inactive). For `CC1SC(=NC(=O)c2ccco2)NC1=O` (centres undefined), the Kd is > 4 mM (inactive). Next, `CC(=O)c1c(C)nn(CC(=O)O)c1C`: > 4 mM (inactive); `Cc1nn2c(nc1=O)SCC(c1ccccc1)=N2`: > 4 mM (inactive); `OCCCc1nc2ccc(C(F)(F)F)cc2[nH]1`: > 4 mM (inactive).

As to `O=C1c2ccccc2C(=O)N1CCc1ccccn1`, the Kd is > 4 mM (inactive). Take `COc1ccc(-c2cc(=O)c3c(OC)c(OC)c(OC)c(OC)c3o2)cc1OC`: the Kd was > 4 mM (inactive). Next, `c1ccc(C[N+]23CCN(CC2)CC3)cc1`: > 4 mM (inactive). Next, `O=[N+]([O-])c1cccc(-c2nnco2)c1`: > 4 mM (inactive). For the compound `Cc1ccc(-c2cc(C(=O)N3CCCC3)no2)cc1`, the Kd was > 4 mM (inactive). With `O=S(=O)(Cc1ccc(Cl)cc1)N1CCCC1` the figure was > 4 mM (inactive). Regarding `CCNS(=O)(=O)c1cc(Br)ccc1OC`, the Kd is > 4 mM (inactive). With `COc1nc(C#N)c(N2CCOCC2)o1` the figure was > 4 mM (inactive); with `CCN=Cc1c(O)n(-c2ccccc2C)c(=O)[nH]c1=O`, > 4 mM (inactive); with `NC(=O)CSc1ccc(-c2ccco2)nn1`, > 4 mM (inactive). With `Cc1c(CO)cnn1-c1ccc(F)cc1` the figure was > 4 mM (inactive); with `COc1ccc2c(c1)OCC(Cc1ccc(OC)c(OC(C)=O)c1)C2=O` (centres undefined), > 4 mM (inactive); with `COc1ccc2c(c1OC)C(=O)N(c1ncn[nH]1)C2`, > 4 mM (inactive).

For the compound `O=S(=O)(Cc1ccccc1)N1CCCCCC1`, the Kd is > 4 mM (inactive).

Consider `CCOC(=O)c1ccc(F)cc1F`, for which the Kd was > 4 mM (inactive).

With `CC(=O)OCC(OC(C)=O)C(OC(C)=O)C(OC(C)=O)C(OC(C)=O)C(COC(C)=O)OC(C)=O` (centres undefined), the Kd was > 4 mM (inactive). For `O=C(CCc1ccc(O)cc1)c1c(O)cc(O)cc1O[C@@H]1O[C@H](CO)[C@@H](O)[C@H](O)[C@H]1O`, the Kd was > 4 mM (inactive). With `O=c1[nH]c(=S)[nH]c2c1CCC2` the figure was > 4 mM (inactive); with `O=C(O)CS(=O)(=O)c1ccccc1[N+](=O)[O-]`, > 4 mM (inactive); with `O=C(Nc1cccnc1)c1cccs1`, > 4 mM (inactive). Next, `COC(=O)c1cccc(C(F)(F)F)c1`: > 4 mM (inactive); `Cc1nnc(N2CCc3ccccc3C2)[nH]c1=O`: > 4 mM (inactive). Regarding `O=C1C(=O)N(CNc2ncccn2)c2ccccc21`, the Kd is > 4 mM (inactive). With `c1ccc(-c2nsc(N3CCNCC3)n2)cc1` the figure was > 4 mM (inactive). With `CCNC(CC(=O)Nc1ccc(F)cc1)C(=O)O` (centres undefined), the Kd was > 4 mM (inactive). For `O=C(O)C1CN(Cc2ccccc2)CCO1` (centres undefined), the Kd was > 4 mM (inactive). As for `O=C(Nc1cccnc1)c1ccc(Br)s1`, the Kd was > 4 mM (inactive).

Turning to `CCOc1ccc(Cl)cc1S(=O)(=O)N1CCCC1`, the Kd was > 4 mM (inactive).

Consider `CC1=C2C(O)C(=O)OC3CC4C(C)(C)C(=O)C=C[C@]4(C)C(CC1)[C@]23C` (some centres undefined), for which the Kd was > 4 mM (inactive). With `COC1C=CC23c4cc5c(cc4CN(CC2O)[C@@H]3C1)OCO5` (some centres undefined) the figure was > 4 mM (inactive); with `ON=c1ccc2nc3ccccc3nc2cc1`, > 4 mM (inactive); with `O=C(O)Cc1c[nH]c2ccccc12`, > 4 mM (inactive). With `CCC(CO)NC(=O)c1snnc1C` (centres undefined), the Kd was > 4 mM (inactive). Next, `CNC(=S)Nc1ccc2c(c1)OCO2`: > 4 mM (inactive); `Cn1c(=O)c2[nH]cnc2n(C)c1=O`: > 4 mM (inactive); `COc1ccccc1-c1nc(=S)[nH][nH]1`: > 4 mM (inactive).

For the compound `O=C(Nc1ccccc1Cl)c1cnccn1`, the Kd was > 4 mM (inactive). Consider `COC(=O)c1cnccc1C(F)(F)F`, for which the Kd was > 4 mM (inactive). Next, `COC(=O)CCC(C)C1CCC2C3CCC4C[C@H](O)CC[C@]4(C)C3C[C@H](O)[C@]12C` (some centres undefined): > 4 mM (inactive); `O=c1cnnc(SCCc2ccccc2)[nH]1`: > 4 mM (inactive); `COC(=O)c1scc(S(C)(=O)=O)c1-n1cccc1`: > 4 mM (inactive). With `CC1(C)C(=O)N(O)C(C)(C)C(=O)N1O`, the Kd is > 4 mM (inactive). Next, `COC(=O)c1ccc(NC(=O)CC2NCCNC2=O)cc1` (centres undefined): > 4 mM (inactive); `O=c1ccc2cc(O[C@@H]3O[C@H](CO)[C@@H](O)[C@H](O)[C@H]3O)c(O)cc2o1`: > 4 mM (inactive); `NC(=O)C1(c2ccccc2)CCOCC1`: > 4 mM (inactive).

For `NC(=O)CCS(=O)(=O)CCN1CCOCC1`, the Kd was > 4 mM (inactive). Next, `NC(=O)CSc1nnnn1-c1ccccc1`: > 4 mM (inactive); `COc1cc2[nH]c(=S)n(C)c(=O)c2cc1OC`: > 4 mM (inactive); `CC(=O)Nc1ccc(S(=O)(=O)N(C)C)cc1`: > 4 mM (inactive). `Cc1n[nH]c(=O)c2ncn(C)c12`: the Kd is > 4 mM (inactive).

As to `CN1CCCCC1c1ccc(-c2cccnc2)nc1` (centres undefined), the Kd was > 4 mM (inactive). Regarding `COc1ncccc1N`, the Kd was > 4 mM (inactive). Regarding `Cn1nc(C(=O)N2CCCC2)c2ccccc2c1=O`, the Kd is > 4 mM (inactive). With `Cc1ccc(C(=O)n2cnnc2N)cc1C` the figure was > 4 mM (inactive); with `Fc1ccc(F)c(CN2CCN(c3ncccn3)CC2)c1`, > 4 mM (inactive). With `CCc1ccc(/C=N/n2cnnc2)cc1` the figure was > 4 mM (inactive); with `N[C@@H](C(=O)O)[C@@H](O)[C@H](O)[C@H](O)CO`, > 4 mM (inactive). Next, `O=C(CSc1ccc(Cl)cc1)N1CCOCC1`: > 4 mM (inactive); `O=C(NCc1ccccn1)c1ccccc1Cl`: > 4 mM (inactive). On to `COc1ccc(-c2cc(=O)c3ccccc3o2)cc1OC`, for which the Kd is > 4 mM (inactive). With `Cc1cc(C)nc(Nc2n[nH]c(Cc3ccccc3)n2)n1` the figure was > 4 mM (inactive); with `CC(C)NC1CS(=O)(=O)CC1O` (centres undefined), > 4 mM (inactive); with `CC1(C)C2C[C@@H](O)[C@]3(C)C(CC[C@@]4(C)[C@H](c5ccoc5)OC(=O)[C@H]5O[C@]543)[C@@]2(C)[C@@H](O)C[C@H]1O` (some centres undefined), > 4 mM (inactive).

As for `NCc1ccc(CN2CCOCC2)cc1`, the Kd was > 4 mM (inactive). Next, `CCOC(=O)C1CCN(Cc2ccccc2)CC1=O` (centres undefined): > 4 mM (inactive); `Cc1nc2sc3c(c2c(=N)n1N)CC(C)(C)OC3`: > 4 mM (inactive); `CCn1cnc2cc(NCc3ccncc3)ccc21`: > 4 mM (inactive). Regarding `COC(=O)c1cc2cc(N)ccc2s1`, the Kd is > 4 mM (inactive).

Regarding `COCc1c(CN)cnc(C)c1N`, the Kd is > 4 mM (inactive). As to `CS(=O)(=O)c1nncn1-c1ccccc1`, the Kd was > 4 mM (inactive).

Consider `COc1ccc2c(c1)C(NC(C)=O)C(=O)N2C` (centres undefined), for which the Kd was > 4 mM (inactive). For the compound `CC1(C)C2CC[C@]3(C)C(C(=O)C=C4[C@@H]5C[C@@](C)(C(=O)O)CC[C@]5(C)CC[C@]43C)[C@@]2(C)CC[C@@H]1O` (some centres undefined), the Kd is > 4 mM (inactive).

On to `Cc1nc(-c2cc(C(=O)O)no2)cs1`, for which the Kd was > 4 mM (inactive). Next, `Nc1cc(=O)[nH]c(=O)n1Cc1ccco1`: > 4 mM (inactive); `N#CCCn1ccnc1-c1ccccc1`: > 4 mM (inactive). Next, `Nc1ncnc(NC2CCS(=O)(=O)C2)c1[N+](=O)[O-]` (centres undefined): > 4 mM (inactive); `Cc1nnc(C)n1/N=C/c1cccs1`: > 4 mM (inactive).
